{"source": "patent US20050143336A1", "about": "(priority 2003, published 2005)", "key": {"[1]": {"system": "p38, JNK, ERK, pATF2, pcJun, STAT3, COX-2", "assay": "Western blot of signaling molecules in lung, liver and spleen after FUS1-nanoparticle with or without naproxen", "type": "in vivo, C3H mice", "protocol": "Western blot analysis for the Signaling molecules. At the time of western blot analysis, organs were slowly thawed on ice. […] Whole Cell lysates were collected in an Eppendorf tube and sonicated for 30 seconds and heated in a water bath at 95° C. for 5 mins and then centrifuged at 13000 rpm for 10 min at 4° C. The supernatants were mixed with 5% 2-mercaptoethanol and stored at −80° C. Protein concentrations was determined by BCA protein assay. Aliquots of cell extracts containing 50 μg of total protein were resolved in 10% SDS-PAGE and transferred from gel to nitrocellulose membrane (Hybond-ECL; Amersham Pharmacia Biotech, UK) and then blocked for 1 h at room temperature (5% nonfat milk powder and 0.1% Tween 20 in TBS or PBS). Then the membranes were incubated with the primary antibodies, phosphospcific p38 (1:1000), phosphospecific pJNK (1:1000), phosphospecific p44/42 (1:1000), phospho ATF2 (1:1000), phospho cJun (1:1000), phospho STAT3 (1:1000) and COX-2 (1:1000). The membranes were then incubated with HRP-conjugated rabbit IgG Ab (Amersham) and the bound antibodies were visualized by enhanced chemiluminescence (Amersham; Piscataway, N.J.). The expression of α-actin was used as the loading control."}, "[2]": {"system": "mouse TNF-α", "settings": "naproxen 15 mg/Kg orally 3 h prior to FUS1-nanoparticles 100 μg DNA i.v.", "procedure": "In vivo experiments. To determine the effect of intravenous administration of FUS1-nanoparticles on inflammation and the potential use of inhibitors, in vivo experiments were conducted in immunocompetent female C3H mice. Mice were divided into three groups (n=5/group). […] Group 3 received intravenous injection of FUS1-nanoparticles only. The amount of plasmid DNA injected was 100 μg. […] At 2 h, 4 h, 6 h and 15 h after treatment with FUS1-nanoparticles, animals were euthanized and blood and organs (lung, liver, spleen) collected. Blood samples were analyzed for mouse TNF-α by ELISA (R&D Systems, MI). Tissue samples were analyzed for expression of inflammation-associated signaling molecules by western blotting (Ito et al., 2003)."}, "[3]": {"system": "PGE2 production", "assay": "PGE2 production assay in cells transfected with FUS1-nanoparticles", "type": "cell-based, Human", "settings": "naproxen 0.5 mM prior to FUS1-nanoparticles", "protocol": "PGE2 production assay. Cells were seeded in 6-well plates (1-3×10^6 cells/well) and incubated at 37° C. Twenty-four hours later, the culture medium was replaced and replenished with fresh medium supplemented with 0.2% serum. […] At 3.5 h after treatment cells were transfected with FUS1-nanoparticles (2.5 μg DNA). The amount of PGE2 secreted into the culture supernatant at various time (2 h, 4 h, and 15 h) points was determined using the PGE2 enzyme immunoassay (Cayman Chemicals, Ann Arbor, Mich.). Assay was performed according to manufacturer's protocol."}, "[4]": {"system": "lung tumor cells", "settings": "luc-nanoparticles in the presence of naproxen"}, "[5]": {"settings": "15 mg/kg orally", "protocol": "At indicated times after injection, blood and organ was collected at different time points. TNF-α, IL-6, IL-1a and IFN-γ levels in serum (C) and TNF-α, IL-6 (D) in organs were determined using specific immunoassay kit. Data represent means±SD.\nAnimals were euthanized at 2, 4, 6, and 15 hours after treatment, and blood was collected. Blood samples were stored at −80° C. until all samples were collected. They were then submitted to the Drug Analysis Core Facility at M.D. Anderson Cancer Center."}, "[6]": {"system": "C3H mice", "type": "in vivo", "settings": "for protection: alive on day 14", "protocol": "In vivo treatment of immunocompetent animals by intravenous injection of DOTAP:Cholesterol-FUS1 complex. Female C3H mice were divided into 3 groups (n=5/group). […] Complexes were injected intravenously via tail vein in a total volume of 200 μl. Animals were monitored initially at 1, 2, 6, 24, 48 hr and later every day until day 14. Animals that appeared morbid or moribund were euthanized by CO2 inhalation and various organs (lung, liver, kidneys, spleen, heart) were collected in buffered formalin and submitted for histopathological examination. Organs were also collected from animals that were dead, and these were submitted for histopathological analyses."}, "[7]": {"system": "AP-1", "assay": "AP-1 DNA binding activity, electrophoretic mobility shift assay in MRC-9 cells", "type": "cell-based, Human", "settings": "naproxen pretreatment before FUS1-nanoparticles", "procedure": "Electrophoretic mobility shift assay (EMSA). MRC-9 cells were seeded in six well plates at 1.3×10^6 cells/well for EMSA. […] Cells were harvested at 2, 4 and 15 h after transfection and nuclear extracts prepared. To the nuclear extracts (10 μg), DNA binding reaction mixture containing [γ-^32P]-ATP radiolabeled AP-1 oligonucleotide and 0.5 μg poly (dI-dC) were added and incubated at 25° C. for 30 min in 5× gel shift binding buffer [20% glycerol, 5 mM MgCl2 2.5 mM EDTA, 2.5 mM DTT, 250 mM NaCl, 50 mM Tris-HCl (pH 7.5)]. The complexes were subsequently resolved on 5% nondenaturing polyacrylamide gels in 0.5×Tris-borate EDTA buffer for 1 h 30 min at 300 V. The bands were visualized by autoradiography."}}, "note": "Entries after “also recorded” stand apart in the source; their conditions may differ. Where two headings read alike, the source gives them in different places."}
{"smiles": "COc1ccc2cc([C@H](C)C(=O)O)ccc2c1", "note": "[Naproxen, naproxen]", "values": [{"measurement": "phosphorylation of JNK, ATF-2, cJun, STAT3 ser727 and Tyr 705 in liver and spleen", "setting": "[1]; naproxen 15 mg/kg", "result": "inhibited"}, {"measurement": "p38 phosphorylation in lung", "setting": "[1]; naproxen 15 mg/kg 2 h before FUS1-nanoparticle, all time points", "result": "complete inhibition"}, {"measurement": "JNK and ERK phosphorylation in lung", "setting": "[1]; naproxen 15 mg/kg, 2 and 4 h", "result": "partial inhibition"}, {"measurement": "COX-2 induced by FUS1-nanoparticle", "setting": "[1]; naproxen 15 mg/kg, 2 h", "result": "inhibition"}, {"measurement": "phosphorylation of ATF-2, cJUN and STAT3 (Ser 727, Tyr705) in lung", "setting": "[1]; naproxen 15 mg/kg, 4 h and 15 h", "result": "inhibited"}, {"measurement": "TNF-α expression levels in blood at 2 h", "setting": "[2]", "result": 411, "unit": "pg/mL"}, {"measurement": "inhibition of PGE2", "setting": "[3]", "result": "almost complete; also recorded: significantly inhibition in PGE2 levels"}, {"measurement": "secreted PGE2 levels", "setting": "[3]; 2-15 h", "result": "33 to 120", "unit": "pg/mL"}, {"measurement": "transgene expression", "setting": "[4]", "result": "Enhanced transgene expression"}, {"measurement": "maximum levels of naproxen in the blood", "setting": "[5]", "result": "3.5 μg/200 μl of blood"}, {"measurement": "time by which naproxen reached baseline levels", "setting": "[5]", "result": "≤ 15", "unit": "h"}, {"measurement": "protection", "setting": "[6]; naproxen 5 mg/kg orally 2 hour prior to complex (100 μg DNA) i.v.", "result": 60, "unit": "%"}, {"measurement": "protection", "setting": "[6]; naproxen 15 mg/kg orally 2 hour prior to complex (100 μg DNA) i.v.", "result": 100, "unit": "%"}, {"measurement": "Diagnosis (histopathology)", "setting": "[6]; naproxen before complex, 15 hr", "result": "almost completely prevented all the inflammatory features except moderate lymphoid atrophy spleen"}, {"measurement": "AP-1 DNA binding activity", "setting": "[7]", "result": "inhibition of AP-1 activity"}]}
